{
  "source": "patent US20240322218A1",
  "about": "“DIAMONDOID SALTS AND RELATED COMPOSITIONS” (Wisconsin Alumni Research Foundation, priority 2021, published 2024)",
  "key": {"[1]": {"test": "Raman spectroscopy of the TFSI stretching mode", "assay_type": "physicochemical", "conditions": "for TFSI Raman shift: neat TFSI salt of the cation, 532 nm laser", "excerpt": "Raman spectra were taken on a LabRAM HR Evolution Horiba microscope using a 532 nm laser and grating of 1800 gr/mm. All Raman spectra were fitted and processed using Horiba's LabSpec6 software. Samples were sealed in glass slides inside of a nitrogen glove box using paraffin wax before spectra were taken."}, "[2]": {"test": "Static 7Li NMR linewidth (lithium mobility) of mixtures with [Li][TFSI]", "assay_type": "physicochemical", "conditions": "for Peak Width: static 7Li NMR, 0.1 mole fraction [Li][TFSI] mixtures with the TFSI salt of the cation", "description": "All NMR measurements were carried out at 11.7 T using a broad band two channel 4 mm standard-bore cross-polarization magic-angle spinning (CP MAS) probe on a Bruker Avance III spectrometer with a proton radio frequency of 500.22 MHz, a ^13C radio frequency of 125.76 MHZ, a ^19F radio frequency 470.66 MHz, and a ^7Li radio frequency 194.40 MHz. The MAS rate was 10 KHz for the CP and ^19F experiments, and static for the ^7Li experiments. 4 mm zirconium rotors with Torlon caps and Viton O-rings were used. Approximately 100 mg of samples was packed into each rotor. All samples were prepared and sealed in a nitrogen glove box. The spinning axis was calibrated to the magic angle using KBr.\n^7Li NMR spectra were acquired using […] the same instrumentation used for ^13C NMR. Protocols and pulse sequences were modified to enhance cross-polarization of ^7Li nuclei. Spectra shown represent 16 signal averages with a 0.05 second acquisition time and a 256 second recycle delay between scans. A pulse length of 2 μs was used to maintain a flip angle of less than π/6.\nTo evaluate the hypothesis that suppression of lithium coordination and incorporation of rigid molecular species can mobilize lithium, solid state NMR spectroscopy of ^7Li was performed to evaluate changes in lithium linewidths as a means of measuring changes in lithium mobility. Static ^7Li NMR spectra indicate the degree of chemical shift anisotropy that the lithium atoms experienced in each salt mixture. […] If the magnetic moment is dependent on the crystallographic orientation, then the lithium is more heavily interacting with the surrounding atoms."}, "[3]": {"test": "Phase characterization / miscibility with [Li][TFSI] (DSC)", "assay_type": "physicochemical", "conditions": "for eutectic composition / miscibility gap onset (single phase solid to binary phase solid transition): mixtures with [Li][TFSI]", "description": "The physical properties of the electrolytes, including solubility, thermal stability, phase transition temperatures, viscosity, and density were measured using a combination of accepted characterization techniques, including differential scanning calorimetry (DSC—measurement of phase transition temperatures), thermogravimetric analysis (TGA—measurement of thermal stability), particle-tracking micro-rheology (viscosity), and hydrometer (density). […] Phase transition temperatures, densities, and viscosities were seen to be dependent on the structures of diamondoid salts, as well as presence of additional “dopant” species, such as lithium salts, other diamondoid salts, or solvent molecules. Melting transitions ranged from below room temperature (below: 15° C.) to above 100° C., which spans the entire definition of an “ionic liquid,” range, as well as “organic plastic crystal” electrolyte range.\n[Li][TFSI] and organic salt mixtures were melted together under vacuum at 100° C. The melting point of [DiamImMe][TFSI] and [AdImAd][TFSI] exceeded 100° C., so mixtures with those salts were melted and dried at 150° C. Heating was avoided above 150° C. as [Li][TFSI] is reported to undergo an oxidation reaction at temperatures approaching the melting point of pure [Li][TFSI]. After two days, samples were moved to a nitrogen glove box. Water and oxygen levels in the glovebox were monitored to be less than 0.5 ppm.\nDifferential scanning calorimetry (DSC) was performed using a TA instruments Q100. Samples were sealed in hermetic pans inside of a glovebox. [AdImMe][TFSI], [Me2AdImMe][TFSI], [DiamImMe][TFSI], and [AdImAd][TFSI] samples were equilibrated at −50° C., held at that temperature for three minutes, and then heated to 250° C. at a rate of 2° C. per minute. [C14MIm][TFSI] samples were cooled at a rate of 1° C. per minute to −50° C., held at that temperature for three minutes, and then heated to 250° C. at 2° C. per minute. […] Since no phase change was present, these faster scans were performed to look for the dissolving of [Li][TFSI]."}, "[4]": {"conditions": "literature (Lassegues et al. 2009); cited from earlier work"}, "[5]": {"test": "Cyclic voltammetry, cathodic stability / solvent protection", "conditions": "comparable electrochemical potentials, FIGS. 6 and 7", "text": "Included representative data was acquired using a platinum counter electrode, a silver/silver nitrate (Ag/AgNO3) acetonitrile non-aqueous reference electrode, and a variety of working electrodes, which spans a wide-range of standard materials and protocols for electrochemical characterization of ionic liquids and organic plastic crystals. The hardware used was a Biologic potentiostat model SP-300.\nA representative procedure using acetonitrile as a solvent and Ag as the working electrode was as follows: • 1. Measure the concentration of water in acetonitrile using Karl Fischer titration. • a. Adjust concentration to ˜1000 ppm water in acetonitrile solvent. • 2. Add diamondoid salt containing electrolyte to make a defined concentration in a 4-dram scintillation vial. • 3. Polish the working electrode using alumina slurry and a polishing pad. • 4. Polish the counter electrode and the Ag wire for the reference electrode. • 5. Clean the electrode surfaces and sonicate for ˜5 seconds. Dry the counter and Ag wire electrode. • 6. Prepare the non-aqueous reference electrode by adding new reference electrolyte consisting of 0.01M AgNO3 and 0.1M tetrabutylammonium tetrafluoroborate (TBA BF4) in acetonitrile. Add the silver wire. • 7. Assemble the electrochemical cell using a custom-printed electrochemical cap by adding the counter, reference, and working electrodes. • 8. […]"}},
  "data": [
    {"compound": "CCCCCCCCCCn1cc[n+](C)c1.O=S(=O)([N-]S(=O)(=O)C(F)(F)F)C(F)(F)F", "note": "[[C10MIm][TFSI], 1-decyl-3-methylimidazolium TFSI, reference compound]", "values": [
      {"measurement": "TFSI Raman shift", "setting": "[1]", "value": 742, "unit": "cm⁻¹"},
      {"measurement": "TFSI Raman shift", "setting": "[1]; listed as [C10ImMe][TFSI]", "value": "ca. 742 cm^−1"}
    ]},
    {"compound": "Cn1cc[n+](C23CC4C5CC6CC4C(C2)C(C6)C5C3)c1", "note": "[Compound 5, 3-(diamantan-4-yl)-1-methylimidazolium bis(trifluoromethane)sulfonimide]", "values": [
      {"measurement": "Peak Width", "setting": "[2]", "value": 1634, "unit": "Hz"},
      {"measurement": "miscibility with lithium bis(trifluorosulfonyl)imide", "setting": "[3]; lithium salt in the diamondoid salt", "value": "up to 50 mol %"},
      {"measurement": "eutectic composition", "setting": "[3]", "value": "~0.5 mol fraction [Li][TFSI]"},
      {"measurement": "miscibility gap onset (single phase solid to binary phase solid transition)", "setting": "[3]", "value": "0.2 mol fraction [Li][TFSI]"},
      {"measurement": "TFSI Raman shift", "setting": "[1]", "value": 743, "unit": "cm⁻¹"}
    ]},
    {"compound": "C[n+]1ccn(C23CC4CC(CC(C4)C2)C3)c1.O=S(=O)([N-]S(=O)(=O)C(F)(F)F)C(F)(F)F", "note": "[[AdImMe][TFSI]]", "values": [
      {"measurement": "peak thinner than 0.1 mole fraction [Li][TFSI] in N-ethyl-N-methylpyrrolidinium bis(fluorosulfonyl)imide mixture", "setting": "[2]; 0.1 mole fraction [Li][TFSI] mixture", "value": 10, "unit": "%"},
      {"measurement": "Peak Width", "setting": "[2]", "value": 454, "unit": "Hz"},
      {"measurement": "eutectic composition", "setting": "[3]", "value": "~0.5 mol fraction [Li][TFSI]"},
      {"measurement": "miscibility gap onset (single phase solid to binary phase solid transition)", "setting": "[3]", "value": "0.2 mol fraction [Li][TFSI]"},
      {"measurement": "change of TFSI Raman spectrum in equimolar mixture with [Li][TFSI]", "setting": "[1]", "value": "no statistical change"},
      {"measurement": "TFSI Raman shift", "setting": "[1]", "value": "ca. 745 cm^−1"},
      {"measurement": "TFSI Raman shift", "setting": "[1]; listed as AdImMe", "value": 745, "unit": "cm⁻¹"}
    ]},
    {"compound": "Cn1cc[n+](C23CC4CC(CC(C4)C2)C3)c1.[Br-]", "values": [
      {"measurement": "melting point", "value": "230 to 234.1", "unit": "°C"}
    ]},
    {"compound": "O=S(=O)([N-]S(=O)(=O)C(F)(F)F)C(F)(F)F.[Li+]", "note": "[[Li][TFSI], lithium bis(trifluorosulfonyl)imide, reference compound]", "values": [
      {"measurement": "TFSI Raman shift", "setting": "[1]", "value": "ca. 747 cm^−1"},
      {"measurement": "TFSI Raman shift", "setting": "[1]; listed as Li", "value": 747, "unit": "cm⁻¹"}
    ]},
    {"compound": "[Br-].c1c[n+](C23CC4CC(CC(C4)C2)C3)cn1C12CC3CC(CC(C3)C1)C2", "note": "[Compound 4, 1,3-bis(adamantan-1-yl)imidazolium bromide]", "values": [
      {"measurement": "melting point", "value": "327.5 to 329.9", "unit": "°C"}
    ]},
    {"compound": "CCCCCCCCCCCCCCn1cc[n+](C)c1.O=S(=O)([N-]S(=O)(=O)C(F)(F)F)C(F)(F)F", "note": "[[C14MIm][TFSI], 1-tetradecyl-3-methylimidazolium TFSI, reference compound]", "values": [
      {"measurement": "TFSI Raman shift", "setting": "[1]", "value": 742, "unit": "cm⁻¹"},
      {"measurement": "TFSI Raman shift", "setting": "[1]; listed as [C14ImMe][TFSI]", "value": "ca. 742 cm^−1"}
    ]},
    {"compound": "1-ethyl-3-methylimidazolium bis(trifluoromethylsulfonyl)imide", "values": [
      {"measurement": "phase transition via Raman spectroscopy", "setting": "[4]", "value": "0.2 mole fraction [Li][TFSI]"},
      {"measurement": "cathodic stability", "setting": "[5]", "value": "pronounced cathodic decomposition"}
    ]},
    {"compound": "O=S(=O)([N-]S(=O)(=O)C(F)(F)F)C(F)(F)F.c1c[n+](C23CC4CC(CC(C4)C2)C3)cn1C12CC3CC(CC(C3)C1)C2", "note": "[[AdImAd][TFSI]]", "values": [
      {"measurement": "Peak Width", "setting": "[2]", "value": 3159, "unit": "Hz"},
      {"measurement": "change of TFSI Raman spectrum in equimolar mixture with [Li][TFSI]", "setting": "[1]", "value": "essentially eliminated"},
      {"measurement": "TFSI Raman shift", "setting": "[1]", "value": "ca. 740 cm^−1"},
      {"measurement": "TFSI Raman shift", "setting": "[1]; listed as AdImAd", "value": 740, "unit": "cm⁻¹"}
    ]},
    {"compound": "C[n+]1ccn(C23CC4CC(C)(CC(C)(C4)C2)C3)c1.O=S(=O)([N-]S(=O)(=O)C(F)(F)F)C(F)(F)F", "note": "[[Me2AdImMe][TFSI]]", "values": [
      {"measurement": "TFSI Raman shift", "setting": "[1]", "value": 741, "unit": "cm⁻¹"}
    ]}
  ]
}
